≈ marks a conversion by molar mass, not a printed value.
Experiments:
Experiment in all cases: in vitro antibacterial evaluation, MIC by broth dilution
Type in all cases: cell-based
[1] = test system: Enterococcus sp.; conditions: broth dilution, 18 hours at 35° C.
Method in brief: (§1)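 Read-out: the lowest concentration at which the test strain fails to grow. Serial dilutions (64-0.06 μg/mL) in Muller-Hinton II […], 5×10^5 CFU/mL inoculum, NCCLS M7-A2 procedure.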

[2] = test system: Escherichia coli
Method in brief: as §1

[3] = test system: Staphylococcus sp.; conditions: broth dilution, 18 hours at 35° C.; for MIC Staphylococcus aureus (GC 1131): strain GC 1131
Method in brief: as §1

[4] = test system: Streptococcus sp.; conditions: broth dilution, 18 hours at 35° C.
Method in brief: as §1

MIC Enterococcus avium (GC 4558) ([1]; Enterococcus avium (GC 4558)): 8 µg/mL (≈ 5.49 µM)
MIC Enterococcus faecalis (ATCC 29212) ([1]; Enterococcus faecalis (ATCC 29212)): 8 µg/mL (≈ 5.49 µM)
MIC Enterococcus faecalis (GC 2242) ([1]; Enterococcus faecalis (GC 2242)): 4 µg/mL (≈ 2.74 µM)
MIC Enterococcus faecalis (GC 2691) ([1]; Enterococcus faecalis (GC 2691)): 8 µg/mL (≈ 5.49 µM)
MIC Enterococcus faecalis (GC 3059) ([1]; Enterococcus faecalis (GC 3059)): 8 µg/mL (≈ 5.49 µM)
MIC Enterococcus faecalis (GC 4552) ([1]; Enterococcus faecalis (GC 4552)): 8 µg/mL (≈ 5.49 µM)
MIC Enterococcus faecalis (GC 4553) ([1]; Enterococcus faecalis (GC 4553)): 8 µg/mL (≈ 5.49 µM)
MIC Enterococcus faecalis (GC 4554) ([1]; Enterococcus faecalis (GC 4554)): 8 µg/mL (≈ 5.49 µM)
MIC Enterococcus faecalis (GC 6189) ([1]; Enterococcus faecalis (GC 6189)): 4 µg/mL (≈ 2.74 µM)
MIC Enterococcus faecium (GC 2243) ([1]; Enterococcus faecium (GC 2243)): 4 µg/mL (≈ 2.74 µM)
MIC Enterococcus faecium (GC 4556) ([1]; Enterococcus faecium (GC 4556)): 4 µg/mL (≈ 2.74 µM)
MIC Enterococcus faecium (GC 4557) ([1]; Enterococcus faecium (GC 4557)): 2 µg/mL (≈ 1.37 µM)
MIC Enterococcus faecalis (ATCC 29212) ([1]; strain ATCC 29212): 8 µg/mL (≈ 5.49 µM)
MIC Enterococcus faecalis (GC 2242) ([1]; strain GC 2242): 4 µg/mL (≈ 2.74 µM)
MIC Enterococcus faecium (GC 2243) ([1]; strain GC 2243): 4 µg/mL (≈ 2.74 µM)
MIC Enterococcus faecalis (GC 2691) ([1]; strain GC 2691): 8 µg/mL (≈ 5.49 µM)
MIC Enterococcus faecalis (GC 3059) ([1]; strain GC 3059): 8 µg/mL (≈ 5.49 µM)
MIC Enterococcus faecalis (GC 4552) ([1]; strain GC 4552): 8 µg/mL (≈ 5.49 µM)
MIC Enterococcus faecalis (GC 4553) ([1]; strain GC 4553): 8 µg/mL (≈ 5.49 µM)
MIC Enterococcus faecalis (GC 4554) ([1]; strain GC 4554): 8 µg/mL (≈ 5.49 µM)
MIC Enterococcus faecium (GC 4556) ([1]; strain GC 4556): 4 µg/mL (≈ 2.74 µM)
MIC Enterococcus faecium (GC 4557) ([1]; strain GC 4557): 2 µg/mL (≈ 1.37 µM)
MIC Enterococcus avium (GC 4558) ([1]; strain GC 4558): 8 µg/mL (≈ 5.49 µM)
MIC Enterococcus faecalis (GC 6189) ([1]; strain GC 6189): 4 µg/mL (≈ 2.74 µM)
MIC Escherichia coli (ATCC 25922) ([2]; strain ATCC 25922, 18 hours at 35° C.): 64 µg/mL (≈ 43.9 µM)
MIC Escherichia coli (GC 4559) ([2]; strain GC 4559, 18 hours at 35° C.): 64 µg/mL (≈ 43.9 µM)
MIC Staphylococcus aureus (GC 1131) ([3]; inoculum 5×10^5 CFU/mL): 2 µg/mL (≈ 1.37 µM)
MIC Staphylococcus aureus (ATCC 29213) ([3]; strain ATCC 29213): 2 µg/mL (≈ 1.37 µM)
MIC Staphylococcus aureus (GC 1131) [3]: 2 µg/mL (≈ 1.37 µM)
MIC Staphylococcus aureus (GC 3051) ([3]; strain GC 3051): 2 µg/mL (≈ 1.37 µM)
MIC Staphylococcus aureus (GC 3053) ([3]; strain GC 3053): 4 µg/mL (≈ 2.74 µM)
MIC Staphylococcus aureus (GC 4541) ([3]; strain GC 4541): 2 µg/mL (≈ 1.37 µM)
MIC Staphylococcus aureus (GC 4542) ([3]; strain GC 4542): 2 µg/mL (≈ 1.37 µM)
MIC Staphylococcus aureus-SMITH (GC 4543) ([3]; strain GC 4543): 1 µg/mL (≈ 0.686 µM)
MIC Staphylococcus aureus (GC 4544) ([3]; strain GC 4544): 2 µg/mL (≈ 1.37 µM)
MIC Staphylococcus aureus (GC 4545) ([3]; strain GC 4545): 2 µg/mL (≈ 1.37 µM)
MIC Coagulase Negative Staphylococcus (GC 4547) ([3]; strain GC 4547): 1 µg/mL (≈ 0.686 µM)
MIC Coagulase Negative Staphylococcus (GC 4548) ([3]; strain GC 4548): 0.5 µg/mL (≈ 0.343 µM)
MIC Coagulase Negative Staphylococcus (GC 4549) ([3]; strain GC 4549): 0.5 µg/mL (≈ 0.343 µM)
MIC Coagulase Negative Staphylococcus (GC 4551) ([3]; strain GC 4551): 2 µg/mL (≈ 1.37 µM)
MIC Coagulase Negative Staphylococcus (GC 6257) ([3]; strain GC 6257): 0.5 µg/mL (≈ 0.343 µM)
MIC Staphylococcus aureus-SMITH (GC 4543) ([3]; strain SMITH GC 4543): 1 µg/mL (≈ 0.686 µM)
MIC Streptococcus agalactiae (GC 4564) ([4]; Streptococcus agalactiae (GC 4564)): 0.5 µg/mL (≈ 0.343 µM)
MIC Streptococcus pneumoniae (ATCC 6301) ([4]; Streptococcus pneumoniae (ATCC 6301)): <0.06 µg/mL
MIC Streptococcus pneumoniae (GC 1894) ([4]; Streptococcus pneumoniae (GC 1894)): <0.06 µg/mL
MIC Streptococcus pneumoniae (GC 4565) ([4]; Streptococcus pneumoniae (GC 4565)): <0.06 µg/mL
MIC Streptococcus pyogenes (GC 4563) ([4]; Streptococcus pyogenes (GC 4563)): 0.25 µg/mL (≈ 0.171 µM)
MIC Streptococcus pneumoniae (ATCC 6301) ([4]; strain ATCC 6301): <0.06 µg/mL
MIC Streptococcus pneumoniae (GC 1894) ([4]; strain GC 1894): <0.06 µg/mL
MIC Streptococcus pyogenes (GC 4563) ([4]; strain GC 4563): 0.25 µg/mL (≈ 0.171 µM)
MIC Streptococcus agalactiae (GC 4564) ([4]; strain GC 4564): 0.5 µg/mL (≈ 0.343 µM)
MIC Streptococcus pneumoniae (GC 4565) ([4]; strain GC 4565): <0.06 µg/mL
Compound: COc1cc(C2OCC3OC(OC4C(CO)OC(Oc5ccc(CC6NC(=O)C(C(C)c7ccccc7)NC(=O)CNC(=O)C(CO)NC(=O)C(C(O)C7CNC(=N)N7C7OC(CO)C(O)C(O)C7O)NC(=O)C(C(O)C7CNC(=N)N7)NC6=O)cc5)C(O)C4O)C(O)C(O)C3O2)ccc1[N+](=O)[O-] (centres unmarked) [Example 153]
MIC Staphylococcus haemolyticus (GC 4546) ([3]; strain GC 4546): 1 µg/mL (≈ 0.686 µM)

Reference: US6914045B2, “Glycopeptide antibiotics” (Wyeth Holdings Corporation, priority 2001, dated 2005)
